In patent publication US20220089600A1, “TGFß INHIBITOR AND PRODRUGS” (FUNDACIÓ INSTITUT DE RECERCA BIOMÈDICA (IRB BARCELONA), priority 2018, published 2022):

Tests used:
[1] = system: HEK293T cells; experiment: In vitro cytotoxicity, XTT assay; format: cell-based; conditions: 24h
Protocol: To assess the toxicity of the compound of formula I in vitro, HEK293T cells were seeded in 96-well plates and treated for 24h with indicated compounds. DMSO was used as a control.
Cell viability was assessed by the XTT assay (Biological Industries), according to the manufacturer's instructions, incubating for 4h prior to measurement.

[2] = system: MTO129 liver metastases; experiment: Mouse liver metastasis initiation/formation assay with MTOs; format: in vivo; conditions: for Efficacy (Cure rate): two weeks, mice with no metastases
Source text: Mouse tumor organoids (MTOs) are derived from compound transgenic mice (conditional mutations in Apc, Kras, Trp53 and Tgfbr2, as well as bearing Lgr5-EGFP/CreER^T2) of the C57BL6/J strain and cultured as described in Tauriello et al. 2018 Nature 554(7693): 538-543. doi: 10.1038/nature25492. Organoids are tumor epithelial cells grown in a 3D matrix where they adopt an organotypic architecture, typically as spheroids with a lumen. In this way, cells retain a relatively normal polarity (which means that the outside surface, inside/luminal surface and cell-cell contacts are individually specialized), which is more physiological than in conventional 2D cell culture.
In all experiments described in present invention MTO129 were used (Tauriello et al. Nature. 2018).
In patients, treatment doses were reduced to 80 to 150 mg b.i.d in a regime of 14 days on-14 days off.
MTOs expressing a luciferase reporter were measured by bioluminescence imaging, using retroorbital injection of 50 μl 15 mg/ml D-luciferin potassium salt (Resem BV). Photons per second from the region spanning thorax/abdomen were quantified and normalized to the measure at the day of injection.
Control mice were treated with 150 μl of vehicle.
In the experiment shown in FIG. 13, potency of the indicated compounds to inhibit metastasis formation was assessed. Mice were treatments with indicated compounds started two days after MTO129 transplantation and continued during two weeks. Mice were sacrificed at 4 weeks post transplantation and liver metastases (LiMs) were counted by eye on fixed livers.

[3] = system: MTO129 established liver metastases; experiment: Overt metastatic disease model, alone or with anti-PD-1; conditions: monotherapy
Source text: For this purpose, the protocol of mouse inoculation with MTO129 described for FIG. 13 was used, but here treatment with compounds started at day 16 post-inoculation. At this time point mice had developed large metastases. Treatments finished at day 24. […] In these experiments, the vast majority (>90%) of control mice die of liver metastatic disease.
Mouse tumor organoids (MTO129) were developed as indicated in example 3. C57BL/6J mice were purchased from Janvier at 6 weeks of age and injected at 7-8 weeks. For transplantation of MTO129 into the liver, cells were trypsinized (digesting the matrix and disaggregating organoids into single cells), counted and 300,000 cells were injected in HBSS (Hank's Balanced Salt Solution, Lonza) into the spleen, thus delivering the cells directly into the portal vein that connects the intestine to the liver. […] Treatment with compounds occurred by gavage (tube feeding) and mice were treated twice a day with 150 μl of compound suspension in vehicle. […] Control mice were given gavage vehicle and IgG2a isotype control antibody.
At this time point, mice had developed large liver metastases. Treatments finished at day 24. […] In these experiments, the vast majority (>90%) of control mice die of liver metastatic disease.

[4] = target: T1, ALK2 (ACVR1) (Homo sapiens, UniProt Q04771); experiment: KINOMEscan affinity, competition binding
T1 construct: purchased Eurofins (KINOMEscan service)
T1 sequence (Q04771 21-509): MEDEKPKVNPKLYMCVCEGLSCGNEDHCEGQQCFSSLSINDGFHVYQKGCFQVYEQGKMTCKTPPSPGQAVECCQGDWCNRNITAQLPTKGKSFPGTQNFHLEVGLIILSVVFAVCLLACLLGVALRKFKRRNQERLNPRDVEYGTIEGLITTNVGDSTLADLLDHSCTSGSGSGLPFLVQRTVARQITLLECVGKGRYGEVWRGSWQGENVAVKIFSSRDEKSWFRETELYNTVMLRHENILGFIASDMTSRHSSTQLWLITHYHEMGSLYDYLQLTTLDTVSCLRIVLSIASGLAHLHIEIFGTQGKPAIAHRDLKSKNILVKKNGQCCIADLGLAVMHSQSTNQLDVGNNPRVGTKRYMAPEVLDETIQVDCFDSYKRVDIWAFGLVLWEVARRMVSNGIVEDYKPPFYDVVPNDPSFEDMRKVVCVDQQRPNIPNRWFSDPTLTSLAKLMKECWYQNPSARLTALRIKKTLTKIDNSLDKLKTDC
Protocol: (§1) The affinity, measured as Kd (dissociation constants), of the compound of formula I for the ALK family was determined by using the KINOMEscan™ Technology from Eurofins. Selectivity in front of ALK1 (ACVRL1), ALK2 (ACVR1), ALK3 (BMPR1A), ALK4 (ACVR1B), ALK6 (BMPR1B), ACVR2B and TGFβR2 was determined.
(§2) The KINOMEscan screening platform employs an active-site directed competition binding assay to quantitatively measure interactions between test compounds and kinases.
(§3) The assay is performed by combining three components: DNA-tagged kinase; immobilized ligand; and a test compound. The ability of the test compound to compete with the immobilized ligand is measured via quantitative PCR of the DNA tag.
(§4) Test compounds were prepared as 111× stocks in 100% DMSO. Kds were determined using an 11-point 3-fold compound dilution series with three DMSO control points being the top concentration 30 μM. […] The compounds were then diluted directly into the assays such that the final concentration of DMSO was 0.9%. All reactions performed in polypropylene 384-well plate. Each was a final volume of 0.02 ml. […] The beads were then re-suspended in elution buffer (1×PBS, 0.05% Tween 20, 0.5 μM non-biotinylated affinity ligand) and incubated at room temperature with shaking for 30 minutes. The kinase concentration in the eluates was measured by qPCR.
(§5) Compounds that bind the kinase active site and directly (sterically) or indirectly (allosterically) prevent kinase binding to the immobilized ligand, will reduce the amount of kinase captured on the solid support. […] Dissociation constants (Kds) for test compound-kinase interactions are calculated by measuring the amount of kinase captured on the solid support as a function of the test compound concentration.

[5] = target: T2, ALK3 (BMPR1A) (Homo sapiens, UniProt P36894); experiment: KINOMEscan affinity, competition binding
T2 construct: purchased Eurofins (KINOMEscan service)
Protocol: as §1, §2, §3, §4, §5

[6] = target: T3, TGFBR2 (Homo sapiens, UniProt P37173); experiment: KINOMEscan affinity, competition binding
T3 construct: purchased Eurofins (KINOMEscan service)
Protocol: as §1, §2, §3, §4, §5

[7] = target: T4, ALK1 (ACVRL1) (Homo sapiens, UniProt P37023); experiment: KINOMEscan affinity, competition binding
T4 construct: purchased Eurofins (KINOMEscan service)
Protocol: as §1, §2, §3, §4, §5

[8] = target: T5, ALK6 (BMPR1B) (Homo sapiens, UniProt O00238); experiment: KINOMEscan affinity, competition binding
T5 construct: purchased Eurofins (KINOMEscan service)
Protocol: as §1, §2, §3, §4, §5

[9] = target: T6, ACVR2B (Homo sapiens, UniProt Q13705); experiment: KINOMEscan affinity, competition binding
T6 construct: purchased Eurofins (KINOMEscan service)
Protocol: as §1, §2, §3, §4, §5

T4 sequence (P37023 22-503): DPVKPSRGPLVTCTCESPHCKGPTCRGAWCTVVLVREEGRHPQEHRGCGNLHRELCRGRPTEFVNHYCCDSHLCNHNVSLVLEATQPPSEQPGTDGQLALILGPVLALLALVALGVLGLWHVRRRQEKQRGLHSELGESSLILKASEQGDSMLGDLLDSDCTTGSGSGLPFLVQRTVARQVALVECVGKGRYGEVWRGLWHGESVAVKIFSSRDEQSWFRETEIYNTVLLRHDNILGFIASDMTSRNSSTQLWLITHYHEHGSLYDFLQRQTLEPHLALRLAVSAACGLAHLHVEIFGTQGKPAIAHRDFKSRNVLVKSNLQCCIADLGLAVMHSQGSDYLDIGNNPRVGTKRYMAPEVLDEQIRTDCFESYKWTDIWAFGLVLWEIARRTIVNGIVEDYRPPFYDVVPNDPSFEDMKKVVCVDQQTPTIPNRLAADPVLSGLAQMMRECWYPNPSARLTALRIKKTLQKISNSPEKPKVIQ
T3 sequence (P37173 23-567): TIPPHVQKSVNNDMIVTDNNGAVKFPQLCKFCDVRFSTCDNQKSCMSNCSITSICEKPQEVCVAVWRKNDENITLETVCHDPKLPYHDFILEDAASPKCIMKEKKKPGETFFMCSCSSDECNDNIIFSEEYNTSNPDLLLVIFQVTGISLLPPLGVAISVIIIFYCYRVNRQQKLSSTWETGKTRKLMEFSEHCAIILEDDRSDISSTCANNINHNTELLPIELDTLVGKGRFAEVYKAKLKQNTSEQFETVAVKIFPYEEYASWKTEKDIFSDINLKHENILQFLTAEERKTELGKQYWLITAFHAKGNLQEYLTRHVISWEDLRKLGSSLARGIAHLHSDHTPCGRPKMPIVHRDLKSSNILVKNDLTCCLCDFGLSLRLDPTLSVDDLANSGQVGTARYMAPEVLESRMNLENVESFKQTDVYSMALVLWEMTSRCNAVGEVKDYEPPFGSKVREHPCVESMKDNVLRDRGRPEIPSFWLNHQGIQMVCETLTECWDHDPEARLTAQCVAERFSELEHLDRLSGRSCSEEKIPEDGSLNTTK
T6 sequence (Q13705 19-512): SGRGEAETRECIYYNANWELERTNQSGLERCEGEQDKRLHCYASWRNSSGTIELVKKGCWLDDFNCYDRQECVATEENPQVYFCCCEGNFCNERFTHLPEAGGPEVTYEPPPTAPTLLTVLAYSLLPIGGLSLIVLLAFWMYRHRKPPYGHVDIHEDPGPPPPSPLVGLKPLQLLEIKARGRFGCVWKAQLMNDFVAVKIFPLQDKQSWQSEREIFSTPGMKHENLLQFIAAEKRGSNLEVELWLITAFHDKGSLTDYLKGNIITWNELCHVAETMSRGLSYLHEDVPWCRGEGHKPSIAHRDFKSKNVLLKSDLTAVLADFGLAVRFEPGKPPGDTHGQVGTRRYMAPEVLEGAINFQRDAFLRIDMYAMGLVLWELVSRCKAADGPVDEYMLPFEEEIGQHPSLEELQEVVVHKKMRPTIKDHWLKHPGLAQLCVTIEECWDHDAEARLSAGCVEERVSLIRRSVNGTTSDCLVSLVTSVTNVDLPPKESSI
T5 sequence (O00238 14-502): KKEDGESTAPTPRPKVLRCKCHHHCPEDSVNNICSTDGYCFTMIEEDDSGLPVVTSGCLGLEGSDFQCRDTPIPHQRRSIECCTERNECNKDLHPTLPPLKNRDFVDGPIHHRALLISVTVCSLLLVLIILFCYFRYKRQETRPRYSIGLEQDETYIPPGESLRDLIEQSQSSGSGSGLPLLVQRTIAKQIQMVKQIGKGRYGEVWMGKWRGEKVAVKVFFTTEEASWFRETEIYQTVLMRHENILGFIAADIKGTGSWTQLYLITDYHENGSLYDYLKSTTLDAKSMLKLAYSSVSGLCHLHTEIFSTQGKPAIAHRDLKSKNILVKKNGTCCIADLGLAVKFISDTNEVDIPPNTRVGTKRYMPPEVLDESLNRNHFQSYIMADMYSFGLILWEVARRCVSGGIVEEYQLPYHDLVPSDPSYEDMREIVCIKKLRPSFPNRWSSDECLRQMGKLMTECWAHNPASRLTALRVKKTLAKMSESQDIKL
T2 sequence (P36894 24-532): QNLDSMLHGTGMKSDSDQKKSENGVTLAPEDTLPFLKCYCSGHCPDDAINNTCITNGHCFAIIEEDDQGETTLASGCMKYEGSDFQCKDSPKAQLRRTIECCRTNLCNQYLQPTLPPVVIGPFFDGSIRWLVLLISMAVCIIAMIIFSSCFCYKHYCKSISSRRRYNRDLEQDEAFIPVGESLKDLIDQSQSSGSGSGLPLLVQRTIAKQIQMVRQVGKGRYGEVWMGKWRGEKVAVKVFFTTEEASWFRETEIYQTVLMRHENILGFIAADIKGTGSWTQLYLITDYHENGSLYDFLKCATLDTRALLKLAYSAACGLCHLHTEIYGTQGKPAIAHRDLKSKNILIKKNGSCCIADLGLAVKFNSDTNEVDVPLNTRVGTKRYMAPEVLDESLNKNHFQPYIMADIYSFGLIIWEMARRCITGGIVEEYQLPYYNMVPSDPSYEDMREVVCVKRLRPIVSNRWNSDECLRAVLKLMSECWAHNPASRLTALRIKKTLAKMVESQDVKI

SMILES: Cc1cccc(-c2nn3c(c2-c2ccnc4ccc(O)cc24)CCC3)n1 [compound of formula I, 4-(2-(6-methylpyridin-2-yl)-5,6-dihydro-4H-pyrrolo[1,2-b]pyrazol-3-yl)quinolin-6-ol]
- Cell viability ([1]; 30 μM): 93%
- Cell viability ([1]; 100 μM): 64%
- Efficacy (Cure rate) ([2]; 0.3x dose): ~90%
- Efficacy (Cure rate) ([2]; 1x dose): ~90%
- Efficacy (Cure rate) ([2]; 3x dose): 100%
- Efficacy (Cure rate) ([2]; 9x dose): 100%
- liver tumor count (LiMs) compared to galunisertib ([2]; FIG. 3, 0.3× to 9× doses): significant lower amount of liver tumors
- metastatic tumor growth inhibitory capacity (bioluminescence) ([2]; FIG. 4, 0.3× dose, day 3 until day 14): effective
- activity in preventing liver metastasis formation, in words ([2]; FIG. 13, 0.3× dose (21.25 mg/Kg b.i.d)): still effective
- activity in preventing liver metastasis formation, in words ([2]; FIG. 13, 1× dose): significant improved activity
- effective dose, fold lower than the effective Galunisertib dose ([2]; in vivo experiments): 10 fold
- effective dose (>50% efficacy) ([2]; oral, divided b.i.d.): 42.5 mg/kg/day
- efficacy at reducing the number of liver metastasis compared to galunisertib ([3]; FIG. 14, 1× equimolar doses): improved efficacy
- survival rates compared to galunisertib ([3]; FIG. 15, 1× equimolar doses): higher survival rates
- Selectivity improvement ([4]; (I) versus Galunisertib): 1.8
- Selectivity against ALK5 ([4]; ALK2 versus ALK5): 375
- selectivity for ALK5 against ALK2 ([4]; KINOMEscan): greater than 300 fold
- Selectivity improvement ([5]; (I) versus Galunisertib): 3.5
- Selectivity against ALK5 ([5]; ALK3 versus ALK5): 345
- selectivity for ALK5 against ALK3 ([5]; KINOMEscan): greater than 300 fold
- Selectivity improvement ([6]; (I) versus Galunisertib): 83
- selectivity for ALK5 against TGFBR2 ([6]; KINOMEscan): 100 fold
- Selectivity against ALK5 ([6]; TGFBR2 versus ALK5): 100
- Selectivity improvement ([7]; (I) versus Galunisertib): 3.8
- Selectivity against ALK5 ([7]; ALK1 versus ALK5): 550
- selectivity for ALK5 against ALK1 ([7]; KINOMEscan): greater than 300 fold
- Selectivity improvement ([8]; (I) versus Galunisertib): 2.9
- Selectivity against ALK5 ([8]; ALK6 versus ALK5): 8.0
- selectivity for ALK5 against ALK6 ([8]; KINOMEscan): 8 fold
- Selectivity improvement ([9]; (I) versus Galunisertib): 1.2
- Selectivity against ALK5 ([9]; ACVR2B versus ALK5): 5.0
- selectivity for ALK5 against ACVR2B ([9]; KINOMEscan): 5 fold
